Experimental data as given in patent US12268674B2, “Mi-2β inhibitor as an immunotherapy agent” (BioVentures, LLC, priority 2021, dated 2025).

Assays:
Assay in all cases: ATPase profile (ATP acyl phosphate probe)
Type in all cases: binding
[1] = molecular target: T1, ABCE1 (Homo sapiens, UniProt P61221); details: ABCE1, SEQ ID NO: 15, ATP BS
T1 construct: to get the native cell lysate; host or cells: A375 cell lysate

[2] = molecular target: T2, AK1 (Homo sapiens, UniProt P00568)
T2 construct: to get the native cell lysate; host or cells: A375 cell lysate
T2 sequence (P00568 whole entry): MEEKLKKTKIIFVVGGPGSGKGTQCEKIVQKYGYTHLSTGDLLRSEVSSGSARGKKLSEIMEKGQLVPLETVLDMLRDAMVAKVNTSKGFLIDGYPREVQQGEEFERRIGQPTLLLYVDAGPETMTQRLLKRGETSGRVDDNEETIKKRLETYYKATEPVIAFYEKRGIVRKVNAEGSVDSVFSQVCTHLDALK

[3] = molecular target: T3, AK2 (Homo sapiens, UniProt P54819); details: AK2, SEQ ID NO: 33, ATP BS
T3 construct: to get the native cell lysate; host or cells: A375 cell lysate

[4] = molecular target: T4, AK3 (Homo sapiens, UniProt Q9UIJ7); details: AK3, SEQ ID NO: 34, ATP BS
T4 construct: to get the native cell lysate; host or cells: A375 cell lysate

[5] = molecular target: T5, ATIC (Homo sapiens, UniProt P31939); details: SEQ ID NO: 47, ATP BS
T5 construct: to get the native cell lysate; host or cells: A375 cell lysate

[6] = molecular target: T6, (Homo sapiens, UniProt Q9HCK8); details: CIID8, SEQ ID NO: 57, ATP BS
T6 construct: to get the native cell lysate; host or cells: A375 cell lysate

[7] = molecular target: T7, CPS1 (Homo sapiens, UniProt P31327); details: CPS1, SEQ ID NO: 64, labeling site Other
T7 construct: endogenous in cells; host or cells: A375 cell lysate

[8] = molecular target: T8, FDPS (Homo sapiens, UniProt P14324); details: SEQ ID NO: 78, ATP BS
T8 construct: endogenous in cells; host or cells: A375 cell lysate

[9] = molecular target: T9, HSPA1A (Homo sapiens, UniProt P0DMV8)
T9 construct: to get the native cell lysate; endogenous in cells; host or cells: A375
T9 sequence (P0DMV8 whole entry): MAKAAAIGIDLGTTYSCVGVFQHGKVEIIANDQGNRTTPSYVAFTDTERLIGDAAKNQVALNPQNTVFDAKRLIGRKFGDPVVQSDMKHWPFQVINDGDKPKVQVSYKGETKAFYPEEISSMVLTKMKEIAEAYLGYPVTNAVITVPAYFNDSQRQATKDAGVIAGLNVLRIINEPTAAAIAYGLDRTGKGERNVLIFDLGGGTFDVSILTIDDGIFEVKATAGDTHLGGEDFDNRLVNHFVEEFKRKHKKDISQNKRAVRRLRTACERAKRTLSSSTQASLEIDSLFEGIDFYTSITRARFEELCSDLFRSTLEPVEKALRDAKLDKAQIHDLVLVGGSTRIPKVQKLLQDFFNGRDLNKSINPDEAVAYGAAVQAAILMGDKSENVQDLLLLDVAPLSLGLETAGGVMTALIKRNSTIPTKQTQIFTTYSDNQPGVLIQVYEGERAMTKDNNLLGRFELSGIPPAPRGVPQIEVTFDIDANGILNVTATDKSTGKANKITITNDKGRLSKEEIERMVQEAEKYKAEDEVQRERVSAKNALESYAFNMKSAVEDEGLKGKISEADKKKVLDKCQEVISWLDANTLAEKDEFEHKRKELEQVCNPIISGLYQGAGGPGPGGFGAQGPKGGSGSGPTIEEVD

[10] = molecular target: T10, HSPA9 (Homo sapiens, UniProt P38646); details: HSPA9, SEQ ID NO: 108, ATP BS
T10 construct: to get the native cell lysate; endogenous in cells; host or cells: A375

[11] = molecular target: T11, MTHFD1 (Homo sapiens, UniProt P11586); details: MTHFD1, SEQ ID NO: 125, ATP BS
T11 construct: to get the native cell lysate; endogenous in cells; host or cells: A375

[12] = molecular target: T12, MTHFD1L (Homo sapiens, UniProt Q6UB35); details: SEQ ID NO: 126, ATP BS
T12 construct: to get the native cell lysate; endogenous in cells; host or cells: A375
T12 sequence (Q6UB35 32-978): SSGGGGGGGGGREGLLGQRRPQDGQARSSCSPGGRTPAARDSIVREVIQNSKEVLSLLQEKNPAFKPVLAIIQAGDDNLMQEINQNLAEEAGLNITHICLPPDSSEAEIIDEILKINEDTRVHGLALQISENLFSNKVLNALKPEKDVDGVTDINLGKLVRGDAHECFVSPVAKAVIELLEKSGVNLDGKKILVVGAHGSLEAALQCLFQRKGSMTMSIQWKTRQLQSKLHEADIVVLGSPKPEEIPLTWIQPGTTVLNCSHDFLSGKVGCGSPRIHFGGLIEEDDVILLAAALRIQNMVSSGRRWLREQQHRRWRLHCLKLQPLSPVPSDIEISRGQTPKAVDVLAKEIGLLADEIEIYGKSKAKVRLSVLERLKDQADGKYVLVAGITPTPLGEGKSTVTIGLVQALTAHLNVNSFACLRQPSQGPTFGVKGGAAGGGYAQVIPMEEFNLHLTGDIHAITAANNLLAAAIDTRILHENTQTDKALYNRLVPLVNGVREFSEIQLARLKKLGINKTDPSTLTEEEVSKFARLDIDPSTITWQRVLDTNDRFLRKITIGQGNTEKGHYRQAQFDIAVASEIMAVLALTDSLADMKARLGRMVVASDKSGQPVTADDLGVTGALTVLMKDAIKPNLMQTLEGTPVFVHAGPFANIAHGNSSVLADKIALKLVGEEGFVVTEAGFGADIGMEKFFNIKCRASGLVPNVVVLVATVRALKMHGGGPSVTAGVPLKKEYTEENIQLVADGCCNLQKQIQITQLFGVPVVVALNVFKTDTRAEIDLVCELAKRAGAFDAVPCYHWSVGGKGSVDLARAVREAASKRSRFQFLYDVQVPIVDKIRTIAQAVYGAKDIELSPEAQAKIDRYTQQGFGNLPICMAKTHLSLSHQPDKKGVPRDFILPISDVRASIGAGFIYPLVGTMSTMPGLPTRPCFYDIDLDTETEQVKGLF

[13] = molecular target: T13, NADSYN1 (Homo sapiens, UniProt Q6IA69); details: NADSYN1, SEQ ID NO: 130, ATP BS
T13 construct: to get the native cell lysate; endogenous in cells; host or cells: A375

[14] = molecular target: T14, NARS (Homo sapiens, UniProt O43776); details: SEQ ID NO: 131, ATP BS
T14 construct: to get the native cell lysate; endogenous in cells; host or cells: A375
T14 sequence (O43776 whole entry): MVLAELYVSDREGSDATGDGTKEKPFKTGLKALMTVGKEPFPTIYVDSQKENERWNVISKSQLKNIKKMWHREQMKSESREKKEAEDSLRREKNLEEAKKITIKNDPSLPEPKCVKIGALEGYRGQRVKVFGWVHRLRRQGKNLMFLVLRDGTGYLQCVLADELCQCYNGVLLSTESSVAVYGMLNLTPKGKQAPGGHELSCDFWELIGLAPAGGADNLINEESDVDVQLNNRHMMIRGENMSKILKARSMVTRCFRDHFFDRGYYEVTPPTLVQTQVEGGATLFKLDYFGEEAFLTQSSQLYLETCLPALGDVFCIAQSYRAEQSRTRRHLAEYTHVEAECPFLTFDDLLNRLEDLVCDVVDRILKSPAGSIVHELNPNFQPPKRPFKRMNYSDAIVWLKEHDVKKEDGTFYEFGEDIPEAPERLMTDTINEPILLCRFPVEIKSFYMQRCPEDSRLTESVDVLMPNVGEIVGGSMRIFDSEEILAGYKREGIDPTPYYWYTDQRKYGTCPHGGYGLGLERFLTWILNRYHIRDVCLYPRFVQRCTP

[15] = molecular target: T15, NTPCR (Homo sapiens, UniProt Q9BSD7); details: SEQ ID NO: 141, ATP BS
T15 construct: to get the native cell lysate; endogenous in cells; host or cells: A375
T15 sequence (Q9BSD7 whole entry): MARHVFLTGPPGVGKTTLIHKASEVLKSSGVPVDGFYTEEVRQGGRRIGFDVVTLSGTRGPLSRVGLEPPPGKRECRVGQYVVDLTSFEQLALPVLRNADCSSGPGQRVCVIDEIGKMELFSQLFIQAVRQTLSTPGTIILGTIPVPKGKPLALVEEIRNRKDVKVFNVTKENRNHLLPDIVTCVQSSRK

[16] = molecular target: T16, OLA1 (Homo sapiens, UniProt Q9NTK5); details: OLA1, SEQ ID NO: 150, ATP BS
T16 construct: to get the native cell lysate; endogenous in cells; host or cells: A375
T16 sequence (Q9NTK5 whole entry): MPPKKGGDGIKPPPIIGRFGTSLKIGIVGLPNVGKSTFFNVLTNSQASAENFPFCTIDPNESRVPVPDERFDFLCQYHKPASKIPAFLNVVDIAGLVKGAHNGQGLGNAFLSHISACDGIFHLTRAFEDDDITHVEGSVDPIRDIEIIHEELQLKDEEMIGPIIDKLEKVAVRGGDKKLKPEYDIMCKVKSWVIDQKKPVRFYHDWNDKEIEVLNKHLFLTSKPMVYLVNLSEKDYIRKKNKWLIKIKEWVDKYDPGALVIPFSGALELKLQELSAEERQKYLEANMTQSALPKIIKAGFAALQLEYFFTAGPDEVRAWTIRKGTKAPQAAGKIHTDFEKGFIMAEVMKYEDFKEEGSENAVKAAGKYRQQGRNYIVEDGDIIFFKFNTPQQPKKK

[17] = molecular target: T17, RFK (Homo sapiens, UniProt Q969G6); details: SEQ ID NO: 187, ATP BS
T17 construct: to get the native cell lysate; endogenous in cells; host or cells: A375 cell lysate

[18] = molecular target: T18, RUVBL2 (Homo sapiens, UniProt Q9Y230); details: RUVBL2, SEQ ID NO: 189, ATP BS
T18 construct: to get the native cell lysate; endogenous in cells; host or cells: A375 cell lysate
T18 sequence (Q9Y230 2-463 limits assumed): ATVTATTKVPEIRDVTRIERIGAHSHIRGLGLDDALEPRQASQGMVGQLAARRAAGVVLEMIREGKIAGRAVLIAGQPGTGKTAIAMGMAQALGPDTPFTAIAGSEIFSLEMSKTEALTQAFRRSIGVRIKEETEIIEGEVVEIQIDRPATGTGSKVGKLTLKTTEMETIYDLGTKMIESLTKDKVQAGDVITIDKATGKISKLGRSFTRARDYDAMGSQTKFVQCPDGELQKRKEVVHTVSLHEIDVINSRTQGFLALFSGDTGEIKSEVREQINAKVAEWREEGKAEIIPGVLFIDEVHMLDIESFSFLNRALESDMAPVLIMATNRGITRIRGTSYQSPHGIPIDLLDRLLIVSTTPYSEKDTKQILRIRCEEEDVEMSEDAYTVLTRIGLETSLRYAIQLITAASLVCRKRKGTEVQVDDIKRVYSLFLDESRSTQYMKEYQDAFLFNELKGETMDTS
T18 sequence (Q9Y265 whole entry partner): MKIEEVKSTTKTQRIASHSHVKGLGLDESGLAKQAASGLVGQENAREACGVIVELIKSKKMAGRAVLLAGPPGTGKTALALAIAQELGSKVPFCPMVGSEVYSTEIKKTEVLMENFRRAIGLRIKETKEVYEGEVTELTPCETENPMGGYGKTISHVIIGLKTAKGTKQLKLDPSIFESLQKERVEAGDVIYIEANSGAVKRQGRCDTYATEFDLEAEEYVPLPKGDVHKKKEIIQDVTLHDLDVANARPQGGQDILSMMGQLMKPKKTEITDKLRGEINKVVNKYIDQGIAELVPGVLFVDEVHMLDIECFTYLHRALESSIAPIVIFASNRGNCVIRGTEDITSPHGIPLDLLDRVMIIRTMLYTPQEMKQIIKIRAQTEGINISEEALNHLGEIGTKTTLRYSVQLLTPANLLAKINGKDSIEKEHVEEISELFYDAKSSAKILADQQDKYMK

[19] = molecular target: T19, SMC4 (Homo sapiens, UniProt Q9NTJ3); details: SMC4, SEQ ID NO: 195, ATP BS
T19 construct: to get the native cell lysate; endogenous in cells; host or cells: A375 cell lysate

[20] = molecular target: T20, TK2 (Homo sapiens, UniProt O00142); details: TK2, SEQ ID NO: 201, ATP BS
T20 construct: to get the native cell lysate; endogenous in cells; host or cells: A375 cell lysate
T20 sequence (O00142 34-265): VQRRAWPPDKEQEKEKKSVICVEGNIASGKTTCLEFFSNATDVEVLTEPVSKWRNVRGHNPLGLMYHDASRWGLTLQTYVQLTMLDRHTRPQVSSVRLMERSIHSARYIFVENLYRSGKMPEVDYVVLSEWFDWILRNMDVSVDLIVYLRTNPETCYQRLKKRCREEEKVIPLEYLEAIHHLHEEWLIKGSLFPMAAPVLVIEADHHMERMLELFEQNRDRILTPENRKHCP

[21] = tested on: TOR2A, TOR2X; details: SEQ ID NO: 205, ATP BS
[22] = molecular target: T21, TOR4A (Homo sapiens, UniProt Q9NXH8); details: SEQ ID NO: 207, ATP BS
T21 construct: to get the native cell lysate; endogenous in cells; host or cells: A375 cell lysate
T21 sequence (Q9NXH8 whole entry): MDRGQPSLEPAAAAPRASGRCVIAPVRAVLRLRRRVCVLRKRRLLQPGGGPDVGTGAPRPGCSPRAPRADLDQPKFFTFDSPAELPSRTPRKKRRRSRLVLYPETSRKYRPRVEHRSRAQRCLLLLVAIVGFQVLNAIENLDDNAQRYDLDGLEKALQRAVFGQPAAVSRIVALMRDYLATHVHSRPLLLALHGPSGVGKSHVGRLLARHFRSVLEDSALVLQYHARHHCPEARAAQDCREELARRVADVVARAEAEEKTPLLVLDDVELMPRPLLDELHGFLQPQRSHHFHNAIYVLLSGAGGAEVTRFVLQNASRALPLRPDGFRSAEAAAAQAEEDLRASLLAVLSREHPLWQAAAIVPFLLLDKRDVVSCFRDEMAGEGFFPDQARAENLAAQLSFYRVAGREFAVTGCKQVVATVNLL

[23] = molecular target: T22, TRA1 (Homo sapiens, UniProt P14625); details: TRA1, SEQ ID NO: 208, ATP BS
T22 construct: to get the native cell lysate; endogenous in cells; host or cells: A375 cell lysate

[24] = molecular target: T23, UBA5 (Homo sapiens, UniProt Q9GZZ9); details: UBA5, SEQ ID NO: 221, ATP BS
T23 construct: to get the native cell lysate; endogenous in cells; host or cells: A375 cell lysate
T23 sequence (Q9GZZ9 whole entry): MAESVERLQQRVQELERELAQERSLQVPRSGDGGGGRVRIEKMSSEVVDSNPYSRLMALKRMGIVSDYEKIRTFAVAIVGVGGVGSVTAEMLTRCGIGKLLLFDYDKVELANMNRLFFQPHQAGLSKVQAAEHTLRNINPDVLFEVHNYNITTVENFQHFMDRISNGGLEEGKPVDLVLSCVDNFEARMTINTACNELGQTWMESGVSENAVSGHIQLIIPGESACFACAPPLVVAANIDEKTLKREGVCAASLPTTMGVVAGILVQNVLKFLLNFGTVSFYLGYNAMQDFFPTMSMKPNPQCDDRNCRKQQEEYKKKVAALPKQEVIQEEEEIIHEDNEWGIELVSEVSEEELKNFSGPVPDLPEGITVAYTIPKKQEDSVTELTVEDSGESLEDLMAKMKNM

Cn1c(=O)[nH]c2ccc(-c3cccc(C(=O)NC4CCn5ccnc5C4)c3)cc21 (centres unmarked) [Z36-MP5, 3-(3-methyl-2-oxo-2,3-dihydro-1H-benzo[d]imidazol-5-yl)-N-(5,6,7,8-tetrahydroimidazo[1,2-a]pyridin-7-yl)benzamide]
Inhibition (%) by 1 μM Z36-MP5 [1]: −4.76% | Inhibition (%) by 1 μM Z36-MP5 ([2]; AK1, SEQ ID NO: 31, ATP BS): −7.19% | Inhibition (%) by 1 μM Z36-MP5 ([2]; AK1, SEQ ID NO: 32, ATP BS): −9.87% | Inhibition (%) by 1 μM Z36-MP5 [3]: −4.75% | Inhibition (%) by 1 μM Z36-MP5 [4]: 19.58% | Inhibition (%) by 1 μM Z36-MP5 [5]: 4.08% | Inhibition (%) by 1 μM Z36-MP5 [6]: −44.26% | Inhibition (%) by 1 μM Z36-MP5 [7]: 1.16% | Inhibition (%) by 1 μM Z36-MP5 [8]: 29.13% | Inhibition (%) by 1 μM Z36-MP5 ([9]; SEQ ID NO: 100, ATP BS): −9.44% | Inhibition (%) by 1 μM Z36-MP5 ([9]; SEQ ID NO: 101, ATP BS): −15.23% | Inhibition (%) by 1 μM Z36-MP5 [10]: −4.09% | Inhibition (%) by 1 μM Z36-MP5 [11]: −6.16% | Inhibition (%) by 1 μM Z36-MP5 [12]: 1.16% | Inhibition (%) by 1 μM Z36-MP5 [13]: −2.19% | Inhibition (%) by 1 μM Z36-MP5 [14]: 2.36% | Inhibition (%) by 1 μM Z36-MP5 [15]: −14.99% | Inhibition (%) by 1 μM Z36-MP5 [16]: −0.68% | Inhibition (%) by 1 μM Z36-MP5 [17]: 10.06% | Inhibition (%) by 1 μM Z36-MP5 [18]: −0.97% | Inhibition (%) by 1 μM Z36-MP5 [19]: −7.11% | Inhibition (%) by 1 μM Z36-MP5 [20]: 14.43% | Inhibition (%) by 1 μM Z36-MP5 [21]: 0.38% | Inhibition (%) by 1 μM Z36-MP5 [22]: 5.38% | Inhibition (%) by 1 μM Z36-MP5 [23]: −8.56% | Inhibition (%) by 1 μM Z36-MP5 [24]: −12.85%
